The text below walks through data of article PMC5590106 (Biochemical and biophysical research communications, 2017).

Common to all, as to type: biochemical
In one assay the target is T1, Human Caspase 3 (HCASP3) (Homo sapiens, UniProt P42574).
T1 sequence (P42574 29-175 limits assumed): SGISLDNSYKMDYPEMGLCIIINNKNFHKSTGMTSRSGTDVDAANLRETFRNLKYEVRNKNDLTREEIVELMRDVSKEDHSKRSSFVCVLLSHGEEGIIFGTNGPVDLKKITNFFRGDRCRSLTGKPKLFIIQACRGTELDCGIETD
T1 sequence (P42574 176-277 limits assumed): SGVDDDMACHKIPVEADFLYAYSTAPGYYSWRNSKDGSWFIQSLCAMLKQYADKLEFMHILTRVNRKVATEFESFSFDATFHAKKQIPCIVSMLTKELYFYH
Kind of assay: Human caspase-3 fluorogenic assay.

Assay [1] addresses T2, purified C. elegans CED-3 (Caenorhabditis elegans, UniProt P42573).
T2 sequence (P42573 221-374 limits assumed): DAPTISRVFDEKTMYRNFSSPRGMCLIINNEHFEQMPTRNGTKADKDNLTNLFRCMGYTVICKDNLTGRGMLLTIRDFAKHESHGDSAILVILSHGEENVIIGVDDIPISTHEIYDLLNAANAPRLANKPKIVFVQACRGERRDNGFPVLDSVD
T2 sequence (P42573 389-503 limits assumed): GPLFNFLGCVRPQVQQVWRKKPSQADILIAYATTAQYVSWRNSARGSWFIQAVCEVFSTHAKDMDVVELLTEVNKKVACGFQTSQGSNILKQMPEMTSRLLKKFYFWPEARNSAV
The assay is described as follows: CED-3 fluorogenic assay. As to conditions: for Purified CED-3 Hill Slope Value: determined by XLfit in ActivityBase.

In assay [2] the target is T3, C. elegans CED-3 (crude lysate, CED-3L) (Caenorhabditis elegans, UniProt P42573).
T3 sequence (P42573 221-374 limits assumed): T2 sequence (P42573 221-374 limits assumed)
T3 sequence (P42573 389-503 limits assumed): T2 sequence (P42573 389-503 limits assumed)
The assay is described as follows: CED-3 fluorogenic assay.

For `O=C(/C=C/c1ccccc1)NNC1=NS(=O)(=O)c2ccccc21` [BAS01847186], at Human Caspase 3 (HCASP3), the “potency on HCASP3 compared to CED-3” value is recorded as “as potent or more so on HCASP3”.

One may read the IC50 as the midpoint of a concentration-inhibition curve. For the molecule `COc1ccc(N2C(=O)/C(=C/c3ccco3)C(=O)NC2=S)cc1` [BAS 00519146], the IC50 at Human Caspase 3 (HCASP3) (read-out: IC50 HCASP-3, purified HCASP3, Fig. 3C) worked out at 10.8 µM. Further, in assay [1], the “Purified CED-3 Hill Slope Value” was 1.6.

In the case of `CC(=O)N[C@@H](CC(=O)O)C(=O)N[C@@H](CCC(=O)O)C(=O)N[C@H](C(=O)N[C@H](C=O)CC(=O)O)C(C)C` [Ac-DEVD-CHO, reference compound], the IC50 in assay [2] turned out to be 0.0019 µM; in assay [1], 0.0027 µM. The “calculated Hill slope on CED-3L” value in assay [2] (crude lysate, Fig. 1A) is −0.994.

Molecule `Nc1ccc(N2Cc3ccccc3C2)cc1` [BAS 01988614] displayed an IC50 in assay [2] of 43.1 µM. For the same molecule, in assay [1], the IC50 was determined as 13.6 µM and the “Purified CED-3 Hill Slope Value” is 0.62.

For `O=C1NC(=S)N(c2ccc(F)cc2)C(=O)/C1=C/c1ccco1` [BAS 01202237], the “Purified CED-3 Hill Slope Value” in assay [1] turned out to be 1.5.

In assay [2], `O=C(/C=C/c1ccco1)c1ccc(NC(=O)c2cccs2)cc1` [BAS 00835000] registered an IC50 of 30 µM. In assay [1], the IC50 came to 4.9 µM and the “Purified CED-3 Hill Slope Value” came out at 1.38.

For the molecule `CC(=O)c1ccc(-c2ccc(/C=C3/SC(=S)NC3=O)o2)cc1` [BAS 00253468], the half-maximal inhibitory concentration (IC50) in assay [2] is 21 µM; in assay [1], 9 µM. Besides, in assay [1], the “Purified CED-3 Hill Slope Value” is given as 1.79.

With `CCCOC(=O)/C(=C\C=C\c1ccco1)NC(=O)c1ccccc1` [BAS 00187854], the IC50 is 34.7 µM in assay [2] and 14.6 µM in assay [1]. Further, in assay [1], the “Purified CED-3 Hill Slope Value” is on record as 1.27.

In assay [2], `O=c1cc2oc3cc(O)c(O)cc3c(-c3ccccn3)c-2cc1O` [BAS 05223612] displayed an IC50 of 24.5 µM. In addition, the “inhibition of HCASP3 (in words)” value against Human Caspase 3 (HCASP3) (dose-response, at the concentrations tested) is on record as “inhibited”. In assay [1], inhibition was half-maximal at 3.9 µM (IC50), the “inhibition of CED-3 (in words)” value is “inhibited” and the “Purified CED-3 Hill Slope Value” is reported as 1.7.
